Source: patent US20140023611A1 (priority 2010, published 2014)

Assays:
rat NaP2b (SLC34A2) = biological target: T1, rat NaP2b (SLC34A2) (Rattus norvegicus, UniProt Q9JJ09); experiment: Inhibition of NaP2b-mediated Pi (33P) uptake in transfected HEK293 cells, rat NaP2b; format: cell-based; details: 33P Pi uptake, 0.1 mM phosphate, value given as pIC50 range
T1 construct: host or cells: HEK293
T1 sequence (Q9JJ09 1-695): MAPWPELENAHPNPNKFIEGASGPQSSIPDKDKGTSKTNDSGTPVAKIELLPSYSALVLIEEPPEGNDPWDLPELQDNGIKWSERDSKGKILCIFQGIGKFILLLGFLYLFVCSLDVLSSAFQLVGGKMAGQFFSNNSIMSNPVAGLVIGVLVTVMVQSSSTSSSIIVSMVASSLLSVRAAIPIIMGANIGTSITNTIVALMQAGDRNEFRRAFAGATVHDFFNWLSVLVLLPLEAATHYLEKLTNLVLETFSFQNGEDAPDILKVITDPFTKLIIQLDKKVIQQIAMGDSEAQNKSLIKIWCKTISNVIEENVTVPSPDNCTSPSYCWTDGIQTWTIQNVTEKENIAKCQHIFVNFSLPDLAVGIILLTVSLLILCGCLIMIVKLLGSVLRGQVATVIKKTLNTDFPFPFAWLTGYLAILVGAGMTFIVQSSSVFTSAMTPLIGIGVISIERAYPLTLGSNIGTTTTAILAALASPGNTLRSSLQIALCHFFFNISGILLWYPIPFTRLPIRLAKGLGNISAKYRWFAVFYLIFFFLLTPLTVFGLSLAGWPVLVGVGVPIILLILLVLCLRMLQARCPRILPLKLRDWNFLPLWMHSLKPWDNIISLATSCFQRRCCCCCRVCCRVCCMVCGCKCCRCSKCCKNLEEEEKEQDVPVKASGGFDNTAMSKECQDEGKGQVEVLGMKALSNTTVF
Method in brief: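 The cells transiently expressed NaP2b after Lipofectamine transfection. Each compound was run in duplicate over twelve concentrations, 0.1 nM–30 uM.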

human NaP2b (SLC34A2) = biological target: T2, human NaP2b (SLC34A2) (Homo sapiens, UniProt O95436); experiment: Inhibition of NaP2b-mediated Pi (33P) uptake in transfected HEK293 cells, human NaP2b; format: cell-based; details: for IC50: read-out: pIC50 range for human NaP2b (converted)
T2 construct: host or cells: HEK293
T2 sequence (O95436 1-690): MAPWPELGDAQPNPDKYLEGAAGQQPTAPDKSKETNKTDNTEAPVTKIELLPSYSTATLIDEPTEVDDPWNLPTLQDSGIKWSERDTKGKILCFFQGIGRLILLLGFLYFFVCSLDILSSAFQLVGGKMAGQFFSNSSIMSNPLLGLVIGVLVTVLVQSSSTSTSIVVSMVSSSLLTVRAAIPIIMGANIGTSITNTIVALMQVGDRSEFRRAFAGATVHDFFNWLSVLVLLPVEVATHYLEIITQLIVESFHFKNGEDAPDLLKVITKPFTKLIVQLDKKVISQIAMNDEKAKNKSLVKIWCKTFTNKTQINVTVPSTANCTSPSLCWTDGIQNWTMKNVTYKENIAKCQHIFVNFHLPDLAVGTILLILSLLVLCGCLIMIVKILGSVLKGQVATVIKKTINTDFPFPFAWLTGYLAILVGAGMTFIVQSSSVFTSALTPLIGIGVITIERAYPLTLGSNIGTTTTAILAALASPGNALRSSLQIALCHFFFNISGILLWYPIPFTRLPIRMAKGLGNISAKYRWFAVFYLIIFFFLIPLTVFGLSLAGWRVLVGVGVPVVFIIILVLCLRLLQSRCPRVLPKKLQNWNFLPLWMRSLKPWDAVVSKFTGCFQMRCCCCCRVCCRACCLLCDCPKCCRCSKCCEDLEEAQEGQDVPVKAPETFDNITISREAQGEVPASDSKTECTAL
Experimental: HEK293 cells were obtained from the American Type Culture collection and propagated per their instructions. Expression clones for rat and human NaP2b (SLC34A2) were obtained from Open Biosystems (Catalog numbers MRN1768-9510282, and MHS1010-99823026, respectively). The sequence of the human protein was mutated to insert a threonine after residue 37, and to introduce a N39D mutation.
The rate of phosphate (Pi) uptake into HEK293 cells was measured using a modification of the method described by Mohrmann et al. (Mohrmann, I., Mohrmann, M., Biber, J., and Murer, H. (1986) Am. J. Phys. 250(3 Pt 1):G323-30.) Transfected HEK293 cells were treated with a pharmacological agent to minimize endogenous PiT-mediated phosphate transport activity, such that the only remaining sodium-dependent phosphate transport activity is that which was bestowed by introduction of the NaP2b genes.
Cells were seeded into 96-well plates at 25,000 cells/well and cultured overnight. Lipofectamine 2000 (Invitrogen) was used to introduce the NaP2b cDNA, and the cells were allowed to approach confluence during a second overnight incubation. […] Cells were then overlayed with either choline uptake buffer or sodium uptake buffer (14 mM Tris, 137 mM sodium chloride, 5.4 mM KCl, 2.8 mM CaCl2, 1.2 mM MgSO4, 100 uM KH2PO4, PiT-silencing agent, 1 mg/mL Bovine Serum Albumin, pH 7.4) containing 6-9 uCi/mL ^33P orthophosphoric acid (Perkin Elmer) and test compound. Each compound was tested at twelve concentrations ranging from 0.1 nM to 30 uM. Assays were run in duplicate.
After incubation for 3-30 minutes at room temperature, assay mixtures were removed, and the cells were washed twice with ice cold stop solution (137 mM sodium chloride, 14 mM Tris, pH 7.4). Cells were lysed by addition of 20 μL 0.1% Tween 80 followed by 100 μL scintillation fluid, and counted using a TopCount (Perkin Elmer).
pIC50 (the negative log of the IC50) values of the test compounds were calculated using GraphPad Prism.

| Molecule | pIC50 range for rat Nap2b (rat NaP2b (SLC34A2)) | pIC50 range for human NaP2b (human NaP2b (SLC34A2); 33P Pi uptake, transfected HEK293 cells, 0.1 mM phosphate, value given as pIC50 range) | IC50 (rat NaP2b (SLC34A2)) [µM] | IC50 (human NaP2b (SLC34A2)) [µM] |
| --- | --- | --- | --- | --- |
| CN(CCO)C(=O)c1cccc(C(=O)Nc2ccc(N3CCCCC3)cc2-c2cc(C(=O)NC3CCCc4ccccc43)ccn2)c1 (stereo in doubt) [Example 115, (S)—N^1-(2-hydroxyethyl)-N′-methyl-N^3-(4-(piperidin]-yl)-2-(4-((1,2,3,4-tetrahydronaphthalen-1-yl)carbamoyl)pyridin-2-yl)phenyl)isophthalamide] | – | – | < 1 | < 1 |
| COc1ccc(CNc2cc(-c3cc(N4CCCCC4)ccc3NC(=O)c3cccc(CSCCC(=O)O)c3)ncn2)cc1OC [Example 3.6, 3-((3-((2-(6-((3,4-Dimethoxybenzyl)amino)pyrimidin-4-yl)-4-(piperidin-1-yl)phenyl)carbamoyl)benzyl)thio)propanoic acid] | – | – | 10 to 31.6 | 10 to 31.6 |
| O=C(O)CCSCc1cccc(C(=O)Nc2ccc(N3CCCCC3)cc2-c2cc(NCc3ccccc3)ncn2)c1 [Example 3.7, 3-((3-((2-(6-(Benzylamino)pyrimidin-4-yl)-4-(piperidin-1-yl)phenyl)carbamoyl)benzyl)thio)propanoic acid] | – | – | 10 to 31.6 | 10 to 31.6 |
| O=C(O)CCSCc1cccc(C(=O)Nc2ccc(N3CCCCC3)cc2-c2cc(Nc3cccc(C(F)(F)F)c3)ncn2)c1 [Example 3.10, 3-((3-((4-(Piperidin-1-yl)-2-(6-((3-(trifluoromethyl)phenyl)amino)pyrimidin-4-yl)phenyl)carbamoyl)benzyl)thio)propanoic acid] | – | – | 1 to 7.94 | 10 to 31.6 |
| O=C(CCSCc1cccc(C(=O)Nc2ccc(N3CCCCC3)cc2-c2cc(C(=O)NCc3cccc(C(F)(F)F)c3)ccn2)c1)NCCOCCOCCOCCOCCOCCOCCOCCO [Example 4.19, 2-(2-(3-(29-Hydroxy-5-oxo-9,12,15,18,21,24,27-heptaoxa-2-thia-6-azanonacosyl)benzamido)-5-(piperidin-1-yl)phenyl)-N-(3-(trifluoromethyl)benzyl)isonicotinamide] | – | – | 1 to 7.94 | 1 to 7.94 |
| CN(Cc1cncn1C)C(=O)c1cccc(C(=O)Nc2ccc(N3CCCCC3)cc2-c2cc(C(=O)NCc3cccc(C(F)(F)F)c3)ccn2)c1 [Example 4.26] | – | – | 1 to 7.94 | < 1 |
| CN(CCN1CCOCC1)C(=O)c1cccc(C(=O)Nc2ccc(N3CCCCC3)cc2-c2cc(C(=O)NCc3ccc(C(C)(C)C)cc3)ccn2)c1 [Example 122, N1-(2-(4-((4-tert-butylbenzyl)carbamoyl)pyridin-2-yl)-4-(piperidin-1-yl)phenyl)-N3-methyl-N3-(2-morpholinoethyl)isophthalamide] | – | – | 1 to 7.94 | 1 to 7.94 |
| CN(CCN1CCOCC1)C(=O)c1cccc(C(=O)Nc2ccc(OC3CCC3)cc2-c2cc(C(=O)N[C@H]3CCCc4ccccc43)ccn2)c1 [Example 132, N1-(2-(4-(((S)-1,2,3,4-tetrahydronaphthalen-1-yl)carbamoyl)pyridin-2-yl)-4-cyclobutoxyphenyl)-N3-methyl-N3-(2-morpholinoethyl)isophthalamide] | – | – | < 1 | < 1 |
| CCN(CC)c1ccc(NC(=O)c2cccc(CSCCOCCOCCOCCOCCC(=O)NC(CO)CO)c2)c(-c2cc(C(=O)N[C@H]3CCCc4ccccc43)ccn2)c1 [Example 159, (S)-2-(5-(diethylamino)-2-(3-(20-hydroxy-19-(hydroxymethyl)-17-oxo-5,8,11,14-tetraoxa-2-thia-18-azaicosyl)benzamido)phenyl)-N-(1,2,3,4-tetrahydronaphthalen-1-yl)isonicotinamide] | – | – | < 1 | < 1 |
| CCN(CC)c1ccc(NC(=O)c2cccc(COCCOCCOCCOCCOCCOCCN(CCO)CCO)c2)c(-c2cc(C(=O)NCc3cccc(C(F)(F)F)c3)ccn2)c1 [Example 178, 2-(5-(diethylamino)-2-(3-(22-hydroxy-20-(2-hydroxyethyl)-2,5,8,11,14,17-hexaoxa-20-azadocosyl)benzamido)phenyl)-N-(3-(trifluoromethyl)benzyl)isonicotinamide] | – | – | 1 to 7.94 | 1 to 7.94 |
| CCN(CC)c1ccc(NC(=O)c2cccc(COCCOCCOCCOCCOCCOCCN(C)CCN3CCOCC3)c2)c(-c2cc(C(=O)NCc3cccc(C(F)(F)F)c3)ccn2)c1 [Example 179, 2-(5-(diethylamino)-2-(3-(20-methyl-22-morpholino-2,5,8,11,14,17-hexaoxa-20-azadocosyl)benzamido)phenyl)-N-(3-(trifluoromethyl)benzyl)isonicotinamide] | – | – | 1 to 7.94 | 1 to 7.94 |

Now from value to molecule:

| pIC50 range for rat Nap2b (rat NaP2b (SLC34A2)) | pIC50 range for human NaP2b (human NaP2b (SLC34A2); 33P Pi uptake, transfected HEK293 cells, 0.1 mM phosphate, value given as pIC50 range) | IC50 (rat NaP2b (SLC34A2)) [µM] | IC50 (human NaP2b (SLC34A2)) [µM] | Molecule |
| --- | --- | --- | --- | --- |
| 5.1-6.0 | 5.1-6.0 | – | – | 16-(3-(4-(16-(3-(4-(diethylamino)-2-(4-(3-(trifluoromethyl)benzylcarbamoyl)pyridin-2-yl)phenylcarbamoyl)phenyl)-4,7,10,13-tetraoxahexadecane)piperazine-1-carbonyl)phenyl)-4,7,10,13-tetraoxahexadecan-1-oic acid [Example 293] |
| – | – | 1 to 7.94 | 1 to 7.94 | O=C(O)CCSCc1cccc(C(=O)Nc2ccc(N3CCCCC3)cc2-c2cc(NCc3cccc(C(F)(F)F)c3)ncn2)c1 [Example 3.1, 3-((3-((4-(Piperidin-1-yl)-2-(6-((3-(trifluoromethyl)benzyl)amino)pyrimidin-4-yl)phenyl)carbamoyl)benzyl)thio)propanoic acid] |
| – | – | 1 to 7.94 | < 1 | O=C(O)CCOCCOCCOCCNC(=O)c1cccc2c1ccn2Cc1cccc(C(=O)Nc2ccc(N3CCCCC3)cc2-c2cc(C(=O)NCc3cccc(C(F)(F)F)c3)ccn2)c1 [Example 9.2, 1-Oxo-1-(1-(3-((4-(piperidin-1-yl)-2-(4-((3-(trifluoromethyl)benzyl)carbamoyl)pyridin-2-yl)phenyl)carbamoyl)benzyl)-1H-indol-4-yl)-5,8,11-trioxa-2-azatetradecan-14-oic acid] |
| – | – | 1 to 7.94 | 1 to 7.94 | CN(CCN1CCOCC1)C(=O)c1cccc(C(=O)Nc2ccc(N3CCCCC3)cc2-c2cc(C(=O)N[C@@H]3CCCc4ccccc43)ccn2)c1 [Example 97] |
| – | – | 1 to 7.94 | 1 to 7.94 | CCN(CC)c1ccc(NC(=O)c2cccc(COCCOCCOCCOCCOC(=O)NCCOCCOCCOCCOCCOCCOCCOC)c2)c(-c2cc(C(=O)NCc3cccc(C(F)(F)F)c3)ccn2)c1 [Example 175, 1-(3-(4-(diethylamino)-2-(4-(3-(trifluoromethyl)benzylcarbamoyl)pyridin-2-yl)phenylcarbamoyl)phenyl)-2,5,8,11-tetraoxamidecan-13-yl 2,5,8,11,14,17,20-heptaoxadocosan-22-ylcarbamate] |
